Measured values as given in US9255077B2, “Fluorine atom-containing mercapto compound” (FUJIFILM CORPORATION, priority 2012, dated 2016).

Assay: Solubility check: surface profile of coated fluoropolymer film observed by optical microscope
Type: physicochemical
Conditions: for Solubility: 0.3 wt % with respect to Cytop CTL-809M in perfluorotributylamine/1,1,1,3,3,3-hexafluoropropan-2-ol/Cytop CTL-809M=90/5/5 (parts by weight), applied onto glass substrate, 2 μm film, dried; for Solubility / compatibility with resin: same test as Table 1, coated Cytop CTL-809M film
Protocol: To a mixed solution of perfluorotributylamine/1,1,1,3,3,3-hexafluoropropan-2-ol/Cytop CTL-809M (manufactured by Asahi Glass Co., Ltd.)=90/5/5 (parts by weight), was added the compound represented by formula (1) according to the invention (any of Compounds 1-1 to 1-8) or any of Comparative Compounds C-1 to C-3 as shown below in an amount of 0.3 wt % with respect to the Cytop CTL-809M. Thereafter, the mixed solution was applied onto a glass substrate to a film thickness of 2 μm and dried.

SMILES	Solubility	Solubility / compatibility with resin
O=C(CCSc1nnc(S)s1)OCCC(F)(F)C(F)(F)C(F)(F)C(F)(F)C(F)(C(F)(F)F)C(F)(F)F [Compound 1-1]	Compatible	
CC(CSc1nnc(S)s1)C(=O)OCCC(F)(F)C(F)(F)C(F)(F)C(F)(F)C(F)(C(F)(F)F)C(F)(F)F (centres unmarked) [Compound 1-2]	Compatible	
O=C(CCSc1nnc(S)s1)OCCC(F)(F)C(F)(F)C(F)(C(F)(F)F)C(F)(F)F [Compound 1-3]	Compatible	
O=C(CCSc1nnc(S)s1)OCCC(F)(F)C(F)(F)C(F)(F)C(F)(F)C(F)(F)C(F)(F)C(F)(C(F)(F)F)C(F)(F)F [Compound 1-4]	Compatible	
O=C(CSc1nnc(S)s1)OCCC(F)(F)C(F)(F)C(F)(F)C(F)(F)C(F)(C(F)(F)F)C(F)(F)F [Compound 1-5]	Compatible	
O=C(CCSc1nnc(S)s1)OCC(F)(F)C(F)(F)C(F)(F)C(F)(F)C(F)(C(F)(F)F)C(F)(F)F [Compound 1-6]	Compatible	
O=C(CCSc1nnc(S)s1)OCCCC(F)(F)C(F)(F)C(F)(F)C(F)(F)C(F)(C(F)(F)F)C(F)(F)F [Compound 1-7]	Compatible	
O=C(CCSc1nnc(S)s1)OCC(F)(F)C(F)(C(F)(F)C(F)(F)F)C(F)(F)C(F)(F)C(F)(F)C(F)(F)F (centres unmarked) [Compound 1-8]	Compatible	
CC(C)CCCCCCOC(=O)CCSc1nnc(S)s1 [Compound C-1, reference compound]	Remain partially	remained partially undissolved
O=C(CSc1nnc(S)s1)OCCC(F)(F)C(F)(F)C(F)(F)C(F)(F)F [Compound C-2, reference compound]	Bleed out (compounds which bleed out are denoted by “Bleed out,”)	bled out on the resin surface
O=C(CSc1nnc(S)s1)OCCC(F)(F)C(F)(F)C(F)(F)C(F)(F)C(F)(F)C(F)(F)C(F)(F)F [Compound C-3, reference compound]	Bleed out slightly	bled out on the resin surface
